Laboratory results reported in patent publication US11702546B2, “Near-infrared heptamethine dyes for generation of singlet oxygen” (California Institute of Technology, priority 2018, dated 2023).
Entries after “also recorded” stand apart in the source; their conditions may differ. Blank lines part the entries; values can stand above or below the molecule they belong to.

Tests used:
[1] = Irradiation experiments with singlet oxygen trap DPBF (NIR laser, absorbance readout vs dark control); assay type: physicochemical; settings: for change in DPBF signal after irradiation: 980 nm laser, 1 W cm-2, CDCl3, 30 minutes, relative to dark control
Protocol: (§1) IR-1061 tetrafluoroborate and dry pyridine were purchased from commercial sources and used as supplied. Deuterated chloroform was purchased from commercial sources and filtered through a neutral alumina plug prior to use to neutralize and dry the solvent. Irradiations at 980 nm were performed using a 1 watt/cm^2 infrared diode laser at 980 nm coupled to a PSU-III-FDA power supply. Irradiations at 1064 nm were performed using an Nd:YAG laser at 1.8 W/cm^2. Absorbance spectra were obtained using an Agilent CARY 60 UV-Vis for spectra below 1000 nm, and a Cary 5000 UV-VIS-NIR for spectra above 1000 nm. Mass spectrometry characterization was performed via MALDI using a BRUKER MALDI/TOF Autoflex Speed and a Waters LCT Premier XE Electrospray TOF. 1H NMR spectra were obtained using a Varian 600 MHz Spectrometer.
Dye was dissolved in deuterated solvent at a concentration that would produce an absorbance near 1 at 980 nm. This was calculated using extinction coefficients determined by absorbance measurements of the dye alone. The IR-1061-acridinium irradiation in water was an exception, as the concentration was kept lower to ensure solubility. Dye solution was split into two aliquots and added to two 1 cm by 1 cm quartz cuvettes purchased from Starna. The absorption spectra were taken for both cuvettes (to ensure the pre-irradiation sample looked the same in both cases), and subsequently one cuvette was irradiated while the other was kept in the dark. A stir bar was used to ensure proper mixing during irradiation. After irradiation, the absorbance of both solutions was again evaluated. […] For the 1064 nm irradiation, the dye was dissolved at a slightly higher concentration to an absorbance of approximately 1.5 at 1064 nm and irradiated for 5 minutes. At this point significant photobleaching of the dye was observed, so additional irradiation was not performed.
The freeze-pump-thaw (FPT) experiment was carried out as follows. Dye was dissolved in deuterated chloroform and added to a FPT that apparatus. Three consecutive freeze-pump-thaw cycles were carried out to a pressure of less than […], at which point the solution was transferred under vacuum to the arm of the apparatus containing a fused 1 cm by 1 cm quartz cuvette (Starna). Irradiation and subsequent absorption measurements were carried out in the sealed cuvette.
The pyridine addition reaction was extremely sensitive to water, but gave good conversion using dry pyridine. […] Despite this inconvenience, the slightly impure dye was used as a proof of principle. For initial singlet oxygen generation experiments, the dye was dissolved in CDCl3—the solvent in which it had the highest solubility—and irradiated using a 1 Wcm^−2 980 nm laser in the presence of a singlet oxygen trap, diphenylisobenzofuran (DPBF). DPBF was selected as a trap because it is a standard in the field and because other popular detectors (such as singlet oxygen sensor green, SOSG) led to precipitation of IR-1061-pyridinium over time.

[2] = Stability and solubility observations of the dye; assay type: physicochemical
[3] = Comparative quantum yield experiments (DPBF bleaching vs phenalenone); assay type: physicochemical; settings: chloroform; for relative quantum yield of singlet oxygen generation: 1064 nm, relative to phenalenone, corrected for photon flux; for percent decrease in DPBF signal at 415 nm: 30 seconds
Text: Phenalenone, a highly efficient singlet oxygen generator with a known singlet oxygen quantum yield of 0.97 in chloroform was used to benchmark the efficiency of IR-1061-acridinium singlet oxygen generation in chloroform. A solution of phenalenone at an absorbance of 0.30 at 365 nm was generated that also contained DPBF at an absorbance of approximately 1.0. This solution was irradiated for 30 seconds using a 365 nm variable power LED (3-300 mW, Thor labs) at 30 mW/cm^2. The percent decrease in DPBF signal at 415 nm was calculated, taking into account any background from phenalenone. This was done in triplicate. A similar experiment was then run using IR-1061-acridinium. A solution containing the dye at an absorbance of 0.30 at 1064 and DPBF at an absorbance of approximately 1.0 was irradiated for 30 seconds using a 1064 nm Nd:YAG laser with a power output of 1.8 W/cm^2. The percent decrease in DPBF signal at 415 nm was then calculated, taking into account any background from IR-1061-acridinium. This was also done in triplicate.
The percent decrease attributed to phenalenone was calculated to be 0.53 and the percent decrease attributed to IR-1061-acridinium was calculated to be 0.29. To account for the difference in photon flux at these two wavelengths, the ratio of the photon flux was calculated, where the photon flux was described by the following equation: PF=I*λ/(h*c*Na). PF stands for photon flux, I is the irradiation intensity, λ is the irradiation wavelength, his Planck's constant, c is the speed of light and Na is Avogadro's number. The ratio of the photon flux was simplified to PFR=(IPhe*λPhe)/(IIR*λIr)=(0.03 W/cm^2*365 nm)/(1.8 W/cm^2*1064 nm)=0.006. Considering this difference in photon flux and phenalenone's known quantum yield of singlet oxygen generation of 0.97, this yielded a relative quantum yield of about 0.003, or 0.3%.

NIR absorbance spectrum = assay type: physicochemical; design: dose or concentration left out as unconfirmed; settings: CDCl3
Protocol: as §1

[4] = in chloroform, irradiation at 365 nm; cited from earlier work
[5] = 980 nm, D2O with DMSO-D6 for solubility
[6] = 1064 nm laser, 1.8 W cm-2, CDCl3, 5 minutes

Structure (SMILES): ClC1=C(/C=C/c2cc(-c3ccccc3)[s+]c(-c3ccccc3)c2)CCC/C1=C\C=C1C=C(c2ccccc2)SC(c2ccccc2)=C1 [IR-1061, reference compound]
change in DPBF signal after irradiation [1]: no significant changes in DPBF signal

solubility after counterion exchange BF4- to BArF- ([2]; compared with BF4- salt): increase in solubility
Structure (SMILES): C(/C=C1\CCCC(/C=C/c2cc(-c3ccccc3)[s+]c(-c3ccccc3)c2)=C1[n+]1c2ccccc2cc2ccccc21)=C1C=C(c2ccccc2)SC(c2ccccc2)=C1 [IR-1061-acridinium BArF]
photosensitization capability after counterion exchange BF4- to BArF- ([1]; 980 nm, CDCl3, compared with tetrafluoroborate salt): marked decrease in photosensitization capability; also recorded: Reactivity was significantly reduced

effect of introduction of protein (BSA) ([2]; BSA added): precipitation of the dye
DPBF degradation rate in water [1, 5]: comparable to those seen in chloroform
photobleaching of the dye in water [1, 5]: high levels of photobleaching
DPBF degradation in polar aprotic solvents ([1]; 980 nm, deuterated polar aprotic solvents such as DMSO): decreased DPBF degradation
bleaching of the dye during irradiation [1, 6]: significant bleaching of the dye
λmax of NIR absorbance (NIR absorbance spectrum): 1078
Structure (SMILES): C(/C=C1\CCCC(/C=C/c2cc(-c3ccccc3)[s+]c(-c3ccccc3)c2)=C1[n+]1c2ccccc2cc2ccccc21)=C1C=C(c2ccccc2)SC(c2ccccc2)=C1 [IR-1061-acridinium]
change in DPBF signal after irradiation [1]: significant DPBF photobleaching was observed only after 30 minutes
singlet oxygen generation in nonpolar solvents ([1]; 980 nm, deuterated nonpolar solvents such as toluene): no singlet oxygen generation was observed
change in DPBF signal, freeze-pump-thawed sample devoid of oxygen ([1]; 980 nm, freeze-pump-thawed CDCl3): no change in DPBF signal
DPBF photobleaching after irradiation [1, 6]: near complete photobleaching of DPBF; also recorded: Rapid bleaching of both the dye and DPBF signal
relative quantum yield of singlet oxygen generation [3]: about 0.003
relative quantum yield of singlet oxygen generation ([3]; approximate): ~0.3%
percent decrease in DPBF signal at 415 nm ([3]; 1064 nm Nd:YAG laser at 1.8 W/cm2, absorbance 0.30 at 1064, triplicate): 0.29

Structure (SMILES): C(/C=C1\CCCC(/C=C/c2cc(-c3ccccc3)[s+]c(-c3ccccc3)c2)=C1[n+]1ccccc1)=C1C=C(c2ccccc2)SC(c2ccccc2)=C1 [IR-1061-pyridinium]
stability to hydration during purification ([2]; all evaluated purification conditions): too sensitive to isolate in pure form due to hydration
change in DPBF signal after irradiation [1]: significant decrease in the DPBF signal

Structure (SMILES): O=C1C=Cc2cccc3cccc1c23 [phenalenone, reference compound]
known singlet oxygen quantum yield [4]: 0.97
percent decrease in DPBF signal at 415 nm ([3]; 365 nm LED at 30 mW/cm2, absorbance 0.30 at 365 nm, triplicate): 0.53
